Test results reported in patent publication US20250057793A1, “BENZOIC ACID SALTS FOR TREATMENT OF NERVOUS SYSTEM INJURIES AND DISORDERS” (The United States Government as represented by the …, priority 2021, published 2025).

How the values were obtained:
[1] = tested on: experimental allergic encephalomyelitis (EAE) in mice; conditions: oral, 50 mg/kg body wt/d; cited from earlier work
[2] = tested on: Huntington pathology in mice; conditions: oral, 50 mg/kg body wt/d; cited from earlier work
TBI mice = assay: Novel object recognition (NOR) test in TBI mice; type: in vivo, mouse; conditions: 21 days post-injury, 50 mg/kg/day oral gavage
Procedure: This test evaluates the animal's ability to recognize the novel object in the environment and monitor short-term memory. Initially, the mice were placed in a square novel box (20 in. long×8 in. high) surrounded with an infrared sensor. Two plastic toys (2.5-3 in. size) that varied in color, shape, and texture were placed in specific locations in the environment 18in. away from each other. The mice were able to freely explore the environment and objects for 15 mins and were then placed back into their individual home cages. After 30 min intervals, the mice were placed back into the environment, with the 2 objects in the same locations, but now one of the familiar objects was replaced with a third novel object. The mice were again allowed to freely explore both objects for 15 min. The familiar and novel objects were thoroughly cleaned with a mild detergent after each testing session.

LPS-stimulated microglia = conditions: cited from earlier work
mice with TBI = assay: Side effects of oral NaB in TBI mice; type: in vivo, mouse
[3] = tested on: mice with traumatic brain injury (TBI); assay: Remyelination in corpus callosum of mice with TBI (PLP/A2B5 double-labeling); type: in vivo, mouse; conditions: 50 mg/kg body weight/day oral gavage
Procedure: FIG. 4 are images of the corpus collosum in mice showing the levels of proteolipid protein (PLP) and A2B5, a marker of oligodendroglial progenitor cells (OPC), in the experimental conditions after 21 days. Oral administration of sodium benzoate (NaB), but not sodium formate (NaFO), stimulates remyelination in mice with traumatic brain injury (TBI). Mice (n=6 per group) were induced moderate TBI by controlled cortical impact (CCI). Starting from 2 hours after TBI, mice were treated with NaB and NaFO (50 mg/kg body weight/day; mixed with water) orally via gavage. After 21 d of treatment, brain sections were double-labeled for PLP and A2B5.
Proteolipid protein (PLP) is a marker of oligodendrocytes and A2B5 is a marker of oligodendroglial progenitor cells (OPC). After 21 days of treatment, brain sections were double-labeled with antibodies against PLP and A2B5.

[4] = tested on: oligodendroglial progenitor cells (OPCs); assay: Maturation of oligodendroglial progenitor cells (OPCs) into oligodendrocytes; type: cell-based, mouse
Procedure: FIGS. 15A-15L: Effect of sodium benzoate (NaB) on the maturation of oligodendroglial progenitor cells (OPCs) into oligodendrocytes. OPCs were isolated from P1˜P2 neonatal mouse pups, cultured in OPC media for 4 days in vitro (DIV) followed by treatment with 100 μM NaB and sodium formate (NaFO) in the absence of FGF and PDGF.
FIG. 15A) After 18 h of 100 μM NaB treatment in serum-free condition, cells were fixed and then dual immuno-stained with MBP (red) and OPC marker NG2 (green). Nuclei were stained with DAPI (blue). FIG. 15B) Similarly, OPCs were stained with PLP (red) and A2B5 (green) under similar treatment condition. Quantification of MBP+(FIG. 15C), NG2+(FIG. 15D), PLP+(FIG. 15E), and A2B5+(FIG. 15F) cells as a percentage of total cells (DAPI+). Average 5 fields per slide, total 3 slides. Results are mean+SEM. ***p<0.001. FIG. 15G) For protein expression, cells were treated with different doses of NaB for 18 h under serum free condition and then immunoblotted with PLP and MOG. FIG. 15H) Densitometric analyses of the bands relative to beta actin were done for PLP and MOG. ^ap<0.001 vs. control PLP; ^bp<0.005 vs. control MOG. FIG. 151) Cells were treated with NaB (100 μM) and NaFO (100 μM) for 4 h under serum-free condition followed by monitoring the mRNA expression of myelin-specific genes by real-time PCR (ap<0.01 vs. control PLP; ^bp<0.01 vs. control MOG; cp<0.01 vs. control MBP; dp<0.01 vs. control CNPase). OPCs were cultured on the top of randomly-oriented polycaprolactone nanofibers (Nanofiber Solutions; Cat #Z694576) for 7 days. After that, these cells were treated with 100 μM NaB (FIG. 15J) and NaFO (K) for additional 2 days followed by immunofluorescence analysis for MBP (red) (FIG. 15J, control; FIG. 15K, NaB; FIG. 15L, NaFO). […] Representative 3D constructed images of OPCs adhered to nanofibers were also shown at the right side.

[5] = if consumed in excess; cited from earlier work
[6] = tested on: OPCs cultured on polycaprolactone nanofibers; assay: Myelination of synthetic polycaprolactone nanofibers by OPCs; type: cell-based, mouse; conditions: 100 μM, 2 days after 7 days culture on nanofibers
Procedure: FIG. 15A) After 18 h of 100 μM NaB treatment in serum-free condition, cells were fixed and then dual immuno-stained with MBP (red) and OPC marker NG2 (green). Nuclei were stained with DAPI (blue). FIG. 15B) Similarly, OPCs were stained with PLP (red) and A2B5 (green) under similar treatment condition. Quantification of MBP+(FIG. 15C), NG2+(FIG. 15D), PLP+(FIG. 15E), and A2B5+(FIG. 15F) cells as a percentage of total cells (DAPI+). Average 5 fields per slide, total 3 slides. Results are mean+SEM. ***p<0.001. FIG. 15G) For protein expression, cells were treated with different doses of NaB for 18 h under serum free condition and then immunoblotted with PLP and MOG. FIG. 15H) Densitometric analyses of the bands relative to beta actin were done for PLP and MOG. ^ap<0.001 vs. control PLP; ^bp<0.005 vs. control MOG. FIG. 151) Cells were treated with NaB (100 μM) and NaFO (100 μM) for 4 h under serum-free condition followed by monitoring the mRNA expression of myelin-specific genes by real-time PCR (ap<0.01 vs. control PLP; ^bp<0.01 vs. control MOG; cp<0.01 vs. control MBP; dp<0.01 vs. control CNPase). OPCs were cultured on the top of randomly-oriented polycaprolactone nanofibers (Nanofiber Solutions; Cat #Z694576) for 7 days. […]

[7] = different doses of NaB, 18 h, serum free

SMILES	adoptive transfer of EAE [1]	Huntington pathology [2]	time spent with novel object (exploration time) (TBI mice)	level of TLR4 (LPS-stimulated microglia; LPS-stimulated microglia)	LPS-induced expression of iNOS and proinflammatory cytokines (LPS-stimulated microglia; microglia)	p21ras activation (LPS-stimulated microglia; microglial cells)	side effects (decrease in body weight, loss of hair, fecal boli, infection, untoward behavior) (mice with TBI)	level of PLP in corpus callosum ([3]; 21 days of treatment)	number of OPCs (A2B5 positive) in corpus callosum ([3]; 21 days of treatment)	remyelination ([3]; 21 d of treatment)	mRNA expression of myelin-specific genes (MBP, PLP, MOG, CNPase), real-time PCR ([4]; 100 μM, 4 h, serum-free)	differentiation/maturation of OPCs into oligodendrocytes (MBP+, PLP+, NG2+, A2B5+ cells) ([4]; 100 μM, 18 h, serum-free, absence of FGF and PDGF)	level of MOG in OPCs (immunoblot) [4, 7]	level of PLP in OPCs (immunoblot) [4, 7]	excretion [5]	myelination of synthetic fibers (MBP immunofluorescence) [6]
O=C(OCC(COC(=O)c1ccccc1)OC(=O)c1ccccc1)c1ccccc1 [GTB, Glyceryl Tribenzoate]	inhibits	alleviates	significantly more time													
O=C([O-])c1ccccc1.[Na+] [NaB, Sodium benzoate]				has no effect	inhibits	suppression	did not cause any side effects	markedly increased	decreased	stimulates	corroborated	stimulated	increased	increased	secreted through the urine	stimulation of myelination
